Measurements published in patent publication US8802597B2, “Herbicidal pyrimidines” (E I du Pont de Nemours and Company, priority 2003, dated 2014).

Columns and labels:
Format in all cases: in vivo
[1] = tested on: Surinam grass (Brachiaria decumbens); assay: Test B pre/postemergence
Method in brief: (§1)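 Following sowing, compounds in a surfactant-bearing non-phytotoxic solvent were applied preemergence; emerged plants 2 to 18 cm high got postemergence treatment concurrently. Evaluation: 13 to 15 days later, greenhouse, 0–100 visual scale.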

[2] = tested on: barnyardgrass (Echinochloa crus-galli); assay: Test B pre/postemergence
Method in brief: as §1

[3] = tested on: cocklebur (Xanthium strumarium); assay: Test B pre/postemergence
Method in brief: as §1

corn (Zea mays) = assay: Test B pre/postemergence
Method in brief: as §1

[4] = tested on: crabgrass (Digitaria sanguinalis); assay: Test B pre/postemergence
Method in brief: as §1

[5] = tested on: giant foxtail (Setaria faberii); assay: Test B pre/postemergence
Method in brief: as §1

[6] = tested on: lambsquarters (Chenopodium album); assay: Test B pre/postemergence
Method in brief: as §1

[7] = tested on: morningglory (Ipomoea coccinea); assay: Test B pre/postemergence
Method in brief: as §1

[8] = tested on: pigweed (Amaranthus retroflexus); assay: Test B pre/postemergence
Method in brief: as §1

[9] = tested on: velvetleaf (Abutilon theophrasti); assay: Test B pre/postemergence
Method in brief: as §1

[10] = tested on: wheat (Triticum aestivum); assay: Test B pre/postemergence
Method in brief: as §1

[11] = tested on: blackgrass (Alopecurus myosuroides); assay: Test B postemergence
Method in brief: as §1

wild oat (Avena fatua) = assay: Test B postemergence
Method in brief: as §1

[12] = tested on: barnyardgrass (Echinochloa crus-galli); assay: Test B flooded paddy test; details: Flood, 1000 g ai/ha; scale 0 (no effect) to 100 (complete control)
Method in brief: (§2)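 Rice, umbrella sedge, duck salad and barnyardgrass grown to 2-leaf stage under flooded paddy conditions and treated with formulated test chemicals. Kept in greenhouse 13–15 days, then visually rated against untreated controls on a 0–100 scale (0 no effect, 100 complete control).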

[13] = tested on: duck salad (Heteranthera limosa); assay: Test B flooded paddy test; details: Flood, 1000 g ai/ha; scale 0 to 100
Method in brief: as §2

rice (Oryza sativa) = assay: Test B flooded paddy test; details: Flood, 1000 g ai/ha; scale 0 to 100
Method in brief: as §2

[14] = tested on: umbrella sedge (Cyperus difformis); assay: Test B flooded paddy test; details: Flood, 1000 g ai/ha; scale 0 to 100
Method in brief: as §2

[15] = Postemergence, 125 g ai/ha, scale 0 to 100 (0 no effect, 100 complete control)
[16] = Postemergence, 500 g ai/ha, scale 0 to 100
[17] = Preemergence, 125 g ai/ha, scale 0 to 100 (0 no effect, 100 complete control)
[18] = Preemergence, 500 g ai/ha, scale 0 to 100 (0 no effect, 100 complete control)
[19] = 125 g ai/ha, scale 0 to 100 (0 no effect, 100 complete control)

COC(=O)c1nc(C2CC2)nc(N=CN(C)C)c1Br [Compound 19]
80: Barnyardgrass plant response rating [2, 15] | Plant response rating, Crabgrass [4, 16] | Plant response rating, Crabgrass [4, 17] | Plant response rating, Foxtail, Giant [5, 16] | Foxtail, Giant plant response rating [5, 18] | Plant response rating, Blackgrass ([11]; 500 g ai/ha, scale 0 to 100) | Plant response rating, Barnyardgrass [12] | Plant response rating, Ducksalad [13]
50: Plant response rating, Wheat [10, 17]
60: Plant response rating, Surinam Grass [1, 17] | Plant response rating, Wheat [10, 16] | Wheat plant response rating [10, 18] | Blackgrass plant response rating [11, 19] | Plant response rating, Rice (rice (Oryza sativa))
20: Foxtail, Giant plant response rating [5, 15] | Plant response rating, Foxtail, Giant [5, 17] | Wheat plant response rating [10, 15]
100: Plant response rating, Cocklebur [3, 16] | Cocklebur plant response rating [3, 18] | Lambsquarters plant response rating [6, 15] | Plant response rating, Lambsquarters [6, 16] | Plant response rating, Lambsquarters [6, 17] | Lambsquarters plant response rating [6, 18] | Morningglory plant response rating [7, 15] | Plant response rating, Morningglory [7, 16] | Morningglory plant response rating [7, 18] | Plant response rating, Pigweed [8, 16] | Pigweed plant response rating [8, 18] | Plant response rating, Velvetleaf [9, 16] | Velvetleaf plant response rating [9, 18]
90: Plant response rating, Surinam Grass [1, 16] | Surinam Grass plant response rating [1, 18] | Plant response rating, Barnyardgrass [2, 16] | Barnyardgrass plant response rating [2, 18] | Cocklebur plant response rating [3, 15] | Plant response rating, Cocklebur [3, 17] | Corn plant response rating (corn (Zea mays); [18]) | Crabgrass plant response rating [4, 18] | Plant response rating, Morningglory [7, 17] | Pigweed plant response rating [8, 15] | Plant response rating, Pigweed [8, 17] | Plant response rating, Velvetleaf [9, 17]
70: Plant response rating, Corn (corn (Zea mays); [16]) | Plant response rating, Corn (corn (Zea mays); [17]) | Velvetleaf plant response rating [9, 15] | Plant response rating, Oat, Wild (wild oat (Avena fatua); 500 g ai/ha, scale 0 to 100) | Plant response rating, Sedge, Umbrella [14]
40: Surinam Grass plant response rating [1, 15] | Plant response rating, Barnyardgrass [2, 17] | Crabgrass plant response rating [4, 15] | Oat, Wild plant response rating (wild oat (Avena fatua); [19])
30: Corn plant response rating (corn (Zea mays); [15])
